Patent publication US11382871B2 (BRIU GmbH, priority 2012, dated 2022)
Read-outs that look alike come from different tables or passages of the source. One block for each compound: values may come before it.

Tests used:
[1] = cited from earlier work; for Solubility: solvents as named in the cell, in water, hexane, ether
plasma protein = assay: Behaviour of curcumin in the blood stream (plasma protein binding); assay type: in vitro ADME; conditions: higher physiological pH of blood
Text: Since the hydroxyl groups are present in undissociated form when the pH is acidic, the curcuminoids' stability is greater in this environment.

IKK = conditions: cited from earlier work
[2] = compared with curcumin; cited from earlier work
cell death = conditions: compared with curcumin; cited from earlier work
tumor = conditions: compared with Cisplatin; cited from earlier work
[3] = compared with curcumin; cited from earlier work; remark: listed apart in the source
[4] = compared with Cisplatin; cited from earlier work

Structure (SMILES): COc1cc(/C=C/C(=O)CC(=O)/C=C/c2ccc(O)cc2)ccc1O [Demethoxy-CUR, 4-Hydroxycinnamoyl feruloyl methane]
- Solubility [1]: Insoluble in water, hexane, ether;

- Plasma protein binding on entering the blood stream (plasma protein): binds to plasma protein
Structure (SMILES): COc1cc(/C=C/C(=O)CC(=O)/C=C/c2ccc(O)c(OC)c2)ccc1O [curcumin, Diferuloylmethane]
- Solubility ([1]; listed as CUR): Insoluble in water, hexane, ether;
- Solubility in water ([1]; water): insoluble in water

Structure (SMILES): O=C(/C=C/c1ccc(O)cc1)CC(=O)/C=C/c1ccc(O)cc1 [Bisdemethoxy-CUR, Bis-4-hydroxycinnamoyl methane]
- Solubility [1]: Insoluble in water, hexane, ether;

Structure (SMILES): Cl.O=C1/C(=C/c2ccccc2F)CNC/C1=C\c1ccccc1F [EF-24]
- IKK inhibition (IKK): IKK inhibitor
- Potency relative to curcumin [2]: more potent than curcumin
- Potency in inducing cell death relative to curcumin (cell death): 10 times
- Effectiveness in anti-tumor screening (tumor): more effective than Cisplatin
- Bioavailability [3]: considerably higher bioavailability
- Potential of inducing adverse effects [4]: significantly lower potential of inducing adverse effects
